Assay results published in PubChem BioAssay (NCI).
Several values for one entry are separate records, joined by “and”; a condition that tells them apart may be missing. Identical values can stand only once.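 Protocol summary: plate cells (96-well), add compound at 5 concentrations, incubate 48 h, interpolate endpoints linearly. At the GI50, growth is halved. TGI denotes the concentration required for complete inhibition of growth.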

test system: HL-60(TB) leukemia; assay: NCI-60 cell line screen, 48 h

SMILES | GI50 | TGI
Nn1c(-c2ccc(Cl)cc2)nc2c(-c3ccc(Cl)cc3)nc3ccc(Cl)cc3c2c1=O | 2.76 µM | > 100 µM
COc1ccc(-c2csc(Nc3cccc(-c4csc(C)n4)c3)n2)cc1 | 0.138 µM | 3.88 µM
COc1cc(/C=C2\SC(N3CCCCC3)=NC2=O)ccc1OCCCCCCOc1ccc(/C=C2\SC(N3CCCCC3)=NC2=O)cc1OC | 14.6 µM | 84.4 µM
COc1cc2c3cc1Oc1c(OC)c(OC)cc4c1C(Cc1ccc(O)c(c1)Oc1ccc(cc1)CC3N(C)CC2)N(C)CC4 (stereo not given) | 20.2 µM | 91.3 µM and 54.6 µM
C[As](C)SC1OCC(O)C(O)C1O (stereo not given) | 0.0278 µM | 0.189 µM
COc1cc2c3c(n(CCCNCCCNCCCN)c(=O)c2cc1OC)-c1cc2c(cc1C3=O)OCO2 | > 100 µM | > 100 µM
CCOC1Oc2ccc(C)cc2C(=O)/C1=C\Nc1ccc(S(N)(=O)=O)cc1 (stereo not given) | 9.48 µM | 27.4 µM
Cc1nc2ccccc2c(=O)n1/N=C(\N=Nc1cc(Cl)ccc1Cl)c1ccccc1 |  | > 100 µM
O=c1[nH]cnc2n[nH]nc12 |  | > 56.4 µM
CC1(C)C2CCC13C(=O)C1OC3(C2)C2C(=O)c3c(ccc4c3ccc3ccccc34)C(=O)C12 (stereo not given) |  | 11.1 µM

test system: HS 578T breast; assay: NCI-60 cell line screen, 48 h

SMILES | GI50 | TGI
CS(=O)(=O)Nc1cc(-c2ccc3ncnc(Nc4cccc(Cl)c4)c3c2)cnc1Cl | 88 nM | 0.782 µM
COc1ccc2c(c1OC)O/C(=C\c1ncc([N+](=O)[O-])n1C)C2=O | 2150 nM | > 22.8 µM
CC1(C)N=C(N)N=C(N)N1c1cccc(CCc2ccccc2)c1 | 22400 nM | > 100 µM
O=C1Nc2ccc3c(c2/C1=C\c1cc2c(cc1Br)OCO2)OCO3 | 376 nM | 2.11 µM
COc1cc2cc(Oc3cccc(NC(=O)Nc4cc(C(F)(F)F)cc(C(F)(F)F)c4)c3)c(C)nc2cc1OC | 2650 nM | 6.94 µM
COc1cc2ncnc(Oc3cccc(NC(=O)Nc4cc(C(C)(C)C(F)(F)F)on4)c3)c2cc1OC | 1770 nM and 1470 nM | 10.2 µM and > 7.23 µM
COc1ccc(/C=C/C(=O)c2cc3c(N)c(C(=O)Nc4ccc(OC)cc4)sc3nc2C)cc1 | 211 nM | > 11.8 µM
CCOC(=O)[C@@H]1CSC(CC)=C(C(=O)O)N1 | > 100000 nM | > 100 µM
COc1cc(NC2CCCCC2O)c2nc(-c3ccc(Cl)cc3)ccc2c1 (stereo not given) | 2880 nM | 13.2 µM
Nn1c(-c2ccc(Cl)cc2)nc2c(-c3ccc(Cl)cc3)nc3ccc(Cl)cc3c2c1=O | 12100 nM | 85 µM
COc1ccc(-c2csc(Nc3cccc(-c4csc(C)n4)c3)n2)cc1 | 4680 nM | > 37.9 µM
COc1cc(/C=C2\SC(N3CCCCC3)=NC2=O)ccc1OCCCCCCOc1ccc(/C=C2\SC(N3CCCCC3)=NC2=O)cc1OC | 3740 nM | 25.7 µM
COc1cc2c3cc1Oc1c(OC)c(OC)cc4c1C(Cc1ccc(O)c(c1)Oc1ccc(cc1)CC3N(C)CC2)N(C)CC4 (stereo not given) | 15300 nM | 55.3 µM and 43.4 µM
C[As](C)SC1OCC(O)C(O)C1O (stereo not given) | 276 nM | 0.718 µM
COc1cc2c3c(n(CCCNCCCNCCCN)c(=O)c2cc1OC)-c1cc2c(cc1C3=O)OCO2 | > 100000 nM | > 100 µM
CCOC1Oc2ccc(C)cc2C(=O)/C1=C\Nc1ccc(S(N)(=O)=O)cc1 (stereo not given) | 14500 nM | 42.6 µM
Cc1nc2ccccc2c(=O)n1/N=C(\N=Nc1cc(Cl)ccc1Cl)c1ccccc1 |  | > 100 µM
O=c1[nH]cnc2n[nH]nc12 | 6110 nM | > 100 µM
CC1(C)C2CCC13C(=O)C1OC3(C2)C2C(=O)c3c(ccc4c3ccc3ccccc34)C(=O)C12 (stereo not given) | > 56100 nM | > 100 µM

test system: LOX IMVI melanoma; assay: NCI-60 cell line screen, 48 h

SMILES | GI50 | TGI
CS(=O)(=O)Nc1cc(-c2ccc3ncnc(Nc4cccc(Cl)c4)c3c2)cnc1Cl | 330 nM | 2.19 µM
COc1ccc2c(c1OC)O/C(=C\c1ncc([N+](=O)[O-])n1C)C2=O | 482 nM | 2.04 µM
CC1(C)N=C(N)N=C(N)N1c1cccc(CCc2ccccc2)c1 | 269 nM | > 100 µM
O=C1Nc2ccc3c(c2/C1=C\c1cc2c(cc1Br)OCO2)OCO3 | 652 nM | 4.57 µM
COc1cc2cc(Oc3cccc(NC(=O)Nc4cc(C(F)(F)F)cc(C(F)(F)F)c4)c3)c(C)nc2cc1OC | 1440 nM | 2.96 µM
COc1cc2ncnc(Oc3cccc(NC(=O)Nc4cc(C(C)(C)C(F)(F)F)on4)c3)c2cc1OC | 319 nM and 421 nM | 1.54 µM and 1.81 µM
COc1ccc(/C=C/C(=O)c2cc3c(N)c(C(=O)Nc4ccc(OC)cc4)sc3nc2C)cc1 | 1060 nM | 11.3 µM
CCOC(=O)[C@@H]1CSC(CC)=C(C(=O)O)N1 | > 100000 nM | > 100 µM
COc1cc(NC2CCCCC2O)c2nc(-c3ccc(Cl)cc3)ccc2c1 (stereo not given) | 5950 nM | 30.9 µM
Nn1c(-c2ccc(Cl)cc2)nc2c(-c3ccc(Cl)cc3)nc3ccc(Cl)cc3c2c1=O | 5770 nM | 32.9 µM
COc1ccc(-c2csc(Nc3cccc(-c4csc(C)n4)c3)n2)cc1 | 389 nM | 11.8 µM
COc1cc(/C=C2\SC(N3CCCCC3)=NC2=O)ccc1OCCCCCCOc1ccc(/C=C2\SC(N3CCCCC3)=NC2=O)cc1OC | 8350 nM | 35.7 µM
COc1cc2c3cc1Oc1c(OC)c(OC)cc4c1C(Cc1ccc(O)c(c1)Oc1ccc(cc1)CC3N(C)CC2)N(C)CC4 (stereo not given) | 3680 nM | > 100 µM and 15.9 µM
C[As](C)SC1OCC(O)C(O)C1O (stereo not given) | 199 nM | 0.566 µM
COc1cc2c3c(n(CCCNCCCNCCCN)c(=O)c2cc1OC)-c1cc2c(cc1C3=O)OCO2 | 32400 nM | > 100 µM
CCOC1Oc2ccc(C)cc2C(=O)/C1=C\Nc1ccc(S(N)(=O)=O)cc1 (stereo not given) | 13700 nM | > 50 µM
Cc1nc2ccccc2c(=O)n1/N=C(\N=Nc1cc(Cl)ccc1Cl)c1ccccc1 |  | > 100 µM
O=c1[nH]cnc2n[nH]nc12 |  | > 49 µM
CC1(C)C2CCC13C(=O)C1OC3(C2)C2C(=O)c3c(ccc4c3ccc3ccccc34)C(=O)C12 (stereo not given) | 50900 nM | > 100 µM
